# Target: Protein Kinase C beta 2 (PKCβII) (Homo sapiens (Human), UniProt P05771)
# Assay: PKCβII coupled PK/LDH spectrophotometric kinase assay
# Format: biochemical
# Conditions: apparent Ki, ATP-competitive model (Morrison equation); 0.1 mM ATP, 30° C.; read-out: PKCb Ki
# Method: This transfer is coupled to the oxidation of β-NADH through the activities of Pyruvate Kinase (PK) and Lactate Dehydrogenase (LDH). β-NADH conversion to NAD+ is monitored by the decrease in absorbance at 340 nm (e=6.22 cm^−1 mM^−1) using a Molecular Devices SPECTRA max PLUS spectrophotometer.
# A typical assay was carried out on a 96-well, clear microtiter plate in a Molecular Devices spectrophotometer for 20 minutes at 30° C. in 0.1 mL of assay buffer containing 50 mM HEPES, pH 7.4, 5 nM PKC, 23 units of pyruvate kinase, 33 units of lactate dehydrogenase, 0.15 mM peptide, 0.1 mM ATP, 1 mM DTT, 4 mM PEP, 8 mM MgCl2, 0.3 mM NADH, 60 mM CaCl2, 10 mg/mL PS, 50 ng/mL PMA, 7.5% DMSO and from about 10,000 nM to 0.169 nM compound inhibitor. Stock solutions of 3-sn-phosphatidyl-L-serine (PS) and phorbol-12-myristate-13-acetate (PMA) were sonicated for 30 seconds just prior to addition to assay buffer and assays were initiated by the addition of 100 μM ATP.
# Enzyme turnover values (kcat) were calculated according to […], where [E] is the total enzyme concentration. Enzyme inhibition constants (apparent K values) were determined by fitting initial velocities at variable inhibitor concentrations to a model for ATP competitive inhibition based on the Morrison equation). Morrison, J. F., Biochim. Biophys Acta 185: 269-286 (1969).
# Chain of Protein Kinase C beta 2 (PKCβII) (P05771 other isoform, or with tags, fused parts or gaps): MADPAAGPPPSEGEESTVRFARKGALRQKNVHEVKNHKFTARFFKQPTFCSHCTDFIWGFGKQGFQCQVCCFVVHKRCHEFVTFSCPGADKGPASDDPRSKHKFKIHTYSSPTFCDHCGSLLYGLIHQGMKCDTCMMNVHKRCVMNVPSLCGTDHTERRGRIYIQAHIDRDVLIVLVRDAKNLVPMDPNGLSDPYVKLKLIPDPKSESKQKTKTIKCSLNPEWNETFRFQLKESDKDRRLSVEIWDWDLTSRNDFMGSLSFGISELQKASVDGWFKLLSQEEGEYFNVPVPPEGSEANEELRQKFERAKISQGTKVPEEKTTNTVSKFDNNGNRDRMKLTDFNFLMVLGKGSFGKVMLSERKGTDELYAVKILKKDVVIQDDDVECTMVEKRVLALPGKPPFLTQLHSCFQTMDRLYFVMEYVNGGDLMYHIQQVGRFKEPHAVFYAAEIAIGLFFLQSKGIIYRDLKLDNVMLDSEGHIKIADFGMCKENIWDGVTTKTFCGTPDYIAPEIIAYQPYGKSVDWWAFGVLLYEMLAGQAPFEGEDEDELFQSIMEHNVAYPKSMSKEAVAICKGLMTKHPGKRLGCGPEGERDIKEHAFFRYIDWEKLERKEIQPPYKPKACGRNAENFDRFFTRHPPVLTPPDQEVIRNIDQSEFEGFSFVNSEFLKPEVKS
row,Ki [µM],Structure (SMILES)
1,0.00417,C[C@@H]1CN(C(=O)N2Cc3c(NC(=O)c4ccc(C(F)(F)F)cn4)n[nH]c3C2(C)C)[C@@H](C)CN1CC1CCOCC1 [Example F60]
2,0.0429,CC1(C)c2[nH]nc(NC(=O)c3cccc(Cl)n3)c2CN1C(=O)N1CCN2CCCC2C1 (stereo not shown) [Example A24]
3,0.0017,C[C@@H]1CN(C(=O)N2Cc3c(NC(=O)c4ccccn4)n[nH]c3C2(C)C)[C@@H](C)CN1C1CCOCC1 [Example A146]
4,0.0224,"CCc1nc(C)c(C(=O)Nc2n[nH]c3c2CN(C(=O)N2C[C@@H](C)N(CC4CCOCC4)C[C@@H]2C)C3(C)C)o1 [Example F1, N-(5-{[(2S,5R)-2,5-dimethyl-4-(tetrahydro-2H-pyran-4-ylmethyl)piperazin-1-yl]carbonyl}-6,6-dimethyl-1,4,5,6-tetrahydropyrrolo[3,4-c]pyrazol-3-yl)-2-ethyl-4-methyl-1,3-oxazole-5-carboxamide]"
5,0.0171,C[C@H]1CN2CCC[C@H]2CN1C(=O)N1Cc2c(NC(=O)c3cccc(C#N)c3)n[nH]c2C1(C)C [Example A60]
6,0.0268,C[C@@H]1CN(C(=O)N2Cc3c(NC(=O)c4cc(C5CC5)on4)n[nH]c3C2(C)C)[C@@H](C)CN1C [Example A140]
7,0.0388,C[C@@H]1CN(C(=O)N2Cc3c(NC(=O)c4ccc(F)cn4)n[nH]c3C2(C)C)[C@@H](C)CN1CCO [Example A161]
8,0.109,C[C@H]1CN2C[C@@H](F)C[C@H]2CN1C(=O)N1Cc2c(NC(=O)c3ccccn3)n[nH]c2C1(C)C [Example A105]
9,0.0292,"C[C@H]1CN2CCC[C@H]2CN1C(=O)N1Cc2c(NC(=O)c3ccccn3)n[nH]c2C1(C)C [Example A1, N-(6,6-Dimethyl-5-((3S,8aS)-3-methyl-octahydropyrrolo[1,2-a]pyrazine-2-carbonyl)-1,4,5,6-tetrahydropyrrolo[3,4-c]pyrazol-3-yl)picolinamide]"
10,0.0257,CCc1nc(C)c(C(=O)Nc2n[nH]c3c2CN(C(=O)N2C[C@@H](C)N(C)C[C@@H]2C)C3(C)C)o1 [Example C6]
11,0.0125,C[C@H]1CN2CCC[C@H]2CN1C(=O)N1Cc2c(NC(=O)c3cnc4ccccc4n3)n[nH]c2C1(C)C [Example E7]
12,0.0898,"CC1(C)c2[nH]nc(NC(=O)c3ccccn3)c2CN1C(=O)C1(F)CCN(C2CCOCC2)CC1 [Example B2, Pyridine-2-carboxylic acid {5-[4-fluoro-1-(tetrahydro-pyran-4-yl)-piperidine-4-carbonyl]-6,6-dimethyl-1,4,5,6-tetrahydro-pyrrolo[3,4-c]pyrazol-3-yl}-amide]"
13,0.136,CC1(C)c2[nH]nc(NC(=O)c3cccs3)c2CN1C(=O)N1CCN2CCCC2C1 (stereo not shown) [Example A15]
14,0.0945,COc1cc(C(=O)Nc2n[nH]c3c2CN(C(=O)N2C[C@@H]4CCCN4C[C@@H]2C)C3(C)C)nc(OC)n1 [Example A59]
15,< 0.01,C[C@@H]1CN(C(=O)N2Cc3c(NC(=O)c4ccc(N5CCOCC5)cn4)n[nH]c3C2(C)C)[C@@H](C)CN1C1CCOCC1 [Example F52]
16,0.149,Cc1cc(C(=O)Nc2n[nH]c3c2CN(C(=O)N2C[C@@H]4CCCN4C[C@@H]2C)C3(C)C)nn1C [Example A52]
17,0.129,CC[C@H](C)[C@H]1CN2CCC[C@@H]2CN1C(=O)N1Cc2c(NC(=O)c3ccccn3)n[nH]c2C1(C)C [Example A80]
18,0.0778,C[C@H]1CN2CCC[C@@H]2CN1C(=O)N1Cc2c(NC(=O)c3ccccn3)n[nH]c2C1(C)C [Example A77]
19,0.108,C[C@@H]1CN(C(=O)N2Cc3c(NC(=O)c4ccccn4)n[nH]c3C2(C)C)[C@@H](C)CN1CCOCCO [Example A156]
20,0.0368,CC1(C)c2[nH]nc(NC(=O)c3cccc(Oc4ccccc4)c3)c2CN1C(=O)N1C[C@@H]2CCCN2C[C@@H]1Cc1ccccc1 [Example A3]
21,0.0435,C[C@H]1CN2CCC[C@H]2CN1C(=O)N1Cc2c(NC(=O)c3cscn3)n[nH]c2C1(C)C [Example A44]

row,Ki [µM],Structure (SMILES)
1,0.0157,C=CCN1C[C@H](C)N(C(=O)N2Cc3c(NC(=O)c4ccccn4)n[nH]c3C2(C)C)C[C@H]1C [Example A89]
2,0.105,CC[C@H]1CN2CCC[C@H]2CN1C(=O)N1Cc2c(NC(=O)c3ccccc3F)n[nH]c2C1(C)C [Example A72]
3,0.165,CC1(C)c2[nH]nc(NC(=O)c3ccccn3)c2CN1C(=O)N1C[C@@H]2CCCN2C[C@@H]1CO [Example A78]
4,0.0104,C[C@H]1CN2CCC[C@H]2CN1C(=O)N1Cc2c(NC(=O)c3nc(Cl)c(Cl)s3)n[nH]c2C1(C)C [Example A74]
5,0.0739,CC1(C)c2[nH]nc(NC(=O)c3ccc4ccccc4n3)c2CN1C(=O)N1CCN2CCCC2C1 (stereo not shown) [Example A11]
6,0.0508,Cc1cc(C(=O)Nc2n[nH]c3c2CN(C(=O)N2C[C@@H]4CCCN4C[C@@H]2C)C3(C)C)ccc1F [Example A62]
7,0.0209,Cc1cc(C)nc(C(=O)Nc2n[nH]c3c2CN(C(=O)N2C[C@@H]4CCCN4C[C@@H]2C)C3(C)C)c1 [Example A51]
8,0.104,C[C@H]1CN2CCC[C@H]2CN1C(=O)N1Cc2c(NC(=O)c3cccc(OC(F)(F)F)c3)n[nH]c2C1(C)C [Example A45]
9,0.125,CC1(C)CN2CCC[C@H]2CN1C(=O)N1Cc2c(NC(=O)c3ccccn3)n[nH]c2C1(C)C [Example A81]
10,0.0213,C[C@H]1CN2CCC[C@H]2CN1C(=O)N1Cc2c(NC(=O)c3cc(Cl)ccn3)n[nH]c2C1(C)C [Example A68]
11,< 0.01,"C[C@@H]1CN(C(=O)N2Cc3c(NC(=O)c4ccc(C#N)cn4)n[nH]c3C2(C)C)[C@@H](C)CN1C1CCOCC1 [Example G1, 5-cyano-N-(5-{[(2S,5R)-2,5-dimethyl-4-(tetrahydro-2H-pyran-4-yl)piperazin-1-yl]carbonyl}-6,6-dimethyl-1,4,5,6-tetrahydropyrrolo[3,4-c]pyrazol-3-yl)pyridine-2-carboxamide]"
12,0.0569,COCCN1C[C@H](C)N(C(=O)N2Cc3c(NC(=O)c4ccc(F)cn4)n[nH]c3C2(C)C)C[C@H]1C [Example A164]
13,0.0503,Cc1nc(C)c(C(=O)Nc2n[nH]c3c2CN(C(=O)N2C[C@@H](C)N(C)C[C@@H]2C)C3(C)C)o1 [Example C2]
14,0.139,CC[C@H](C)[C@H]1CN2C[C@H](O)C[C@H]2CN1C(=O)N1Cc2c(NC(=O)c3ccccn3)n[nH]c2C1(C)C [Example A84]
15,0.113,CC1(C)c2[nH]nc(NC(=O)c3ccccc3)c2CN1C(=O)N1CCN2CCCC2C1 (stereo not shown) [Example A16]
16,0.0213,C[C@H]1CN2CCC[C@H]2CN1C(=O)N1Cc2c(NC(=O)c3cccc(Cl)c3)n[nH]c2C1(C)C [Example A31]
17,0.0559,CC1(C)c2[nH]nc(NC(=O)c3cccc(Oc4ccccc4)c3)c2CN1C(=O)N1CCNCC1c1ccccc1 (stereo not shown) [Example A10]
18,< 0.01,C[C@@H]1CN(C(=O)N2Cc3c(NC(=O)c4ccccn4)n[nH]c3C2(C)C)[C@@H](C)CN1CC1CCOC1 (stereo partly shown) [Example A147]
19,0.0351,Cc1nc(C(=O)Nc2n[nH]c3c2CN(C(=O)N2C[C@@H](C)N(C)C[C@@H]2C)C3(C)C)cs1 [Example C3]
20,0.152,C[C@H]1CN(C)[C@@H](CCO)CN1C(=O)N1Cc2c(NC(=O)c3ccccn3)n[nH]c2C1(C)C [Example A151]

row,Structure (SMILES),Ki [µM]
1,CC1(C)c2[nH]nc(NC(=O)c3ccccc3Cl)c2CN1C(=O)N1C[C@@H]2CCCN2C[C@@H]1Cc1ccccc1 [Example A19],0.0914
2,CCc1cc(C(=O)Nc2n[nH]c3c2CN(C(=O)N2C[C@@H](C)N(CC4CCOCC4)C[C@@H]2C)C3(C)C)no1 [Example F19],0.0265
3,Cc1cc(C(=O)Nc2n[nH]c3c2CN(C(=O)N2C[C@@H](C)N(CC4CCOCC4)C[C@@H]2C)C3(C)C)on1 [Example F21],0.0381
4,C[C@H]1CN2CCC[C@@]2(C)CN1C(=O)N1Cc2c(NC(=O)c3ccc(F)cn3)n[nH]c2C1(C)C [Example A138],0.0293
5,C[C@H]1CN2CCC[C@H]2CN1C(=O)N1Cc2c(NC(=O)c3cccc(F)c3F)n[nH]c2C1(C)C [Example A63],0.0654
6,CC1CN(C(=O)N2Cc3c(NC(=O)c4ccccn4)n[nH]c3C2(C)C)CCN1CC1CC1 (stereo not shown) [Example A127],0.134
7,C[C@H]1CN2CCC[C@H]2CN1C(=O)N1Cc2c(NC(=O)c3ccc(OC(F)(F)F)cc3)n[nH]c2C1(C)C [Example A41],0.0454
8,C[C@H]1CN2CCC[C@H]2CN1C(=O)N1Cc2c(NC(=O)c3ccc(C#N)cc3F)n[nH]c2C1(C)C [Example A66],0.122
9,Cc1cccc(C(=O)Nc2n[nH]c3c2CN(C(=O)N2C[C@@H]4CCCN4C[C@@H]2C)C3(C)C)c1 [Example A65],0.0545
10,C[C@@H]1CN(C(=O)N2Cc3c(NC(=O)c4ccccn4)n[nH]c3C2(C)C)[C@@H](C)CN1Cc1cocn1 [Example A148],0.0483
11,Cc1cc(C(=O)Nc2n[nH]c3c2CN(C(=O)N2C[C@@H](C)N(CC4CCOCC4)C[C@@H]2C)C3(C)C)n(C)n1 [Example F12],0.033
12,C[C@H]1CN2CCC[C@H]2CN1C(=O)N1Cc2c(NC(=O)c3ccc(C(F)(F)F)cn3)n[nH]c2C1(C)C [Example A130],0.0315
13,Cc1cc(C(=O)Nc2n[nH]c3c2CN(C(=O)N2C[C@@H](C)N(CC4CCOCC4)C[C@@H]2C)C3(C)C)no1 [Example F13],0.0411
14,CCc1ccc(C(=O)Nc2n[nH]c3c2CN(C(=O)N2C[C@@H]4CCCN4C[C@@H]2C)C3(C)C)nc1 [Example A50],0.0821
